Data published in patent US20240287054A1, “COMPOUNDS THAT BIND NON-CANONICAL G-QUADRUPLEX STRUCTURES AND METHODS OF MAKING AND USING THE SAME” (The U.S.A., as Represented by the Secretary, Department of …, priority 2021, published 2024).
Like-named read-outs stand apart in the source and are kept apart here.

What was measured:
Assay type in all cases: binding, human
MYCN G4 DNA [1] = assay: Fluorescence intensity assay (FIA) with 5′Cy5-labeled MYCN G4 DNA; conditions: single concentration 100 μM compound, 5′Cy5-MYCN G4
Protocol: Fluorescence intensity assay. In this disclosure, fluorescence intensity assay (FIA) was used for both validation of hit binding at a single dose and binding affinity determination. For validating hit compounds from SMM screening, 100 μM solution of each compound was prepared in triplicate in a 96 well-plate (Costar, black side clear bottom), resulting in 5% DMSO concentration. 5′Cy5-labeled MYCN G4 DNA was annealed as described above, then added into the well plate resulting in a final concentration of 100 nM. The plate was incubated shaking for 30 min, followed by centrifuging at 500 rpm for 2 minutes. The fluorescence intensity was then measured on a Synergy Mx microplate reader (BioTek) at Ex 649 nm/Em 670 nm. TMPyP4/DMSO were used as positive and negative controls, respectively. In certain examples, compounds were considered binders when a change of >10% change in fluorescence intensity was observed compared to that of negative control (DMSO solution). For binding affinity measurement, small molecule solutions were prepared as serial dilutions in DMSO. Then a final test plate was prepared by adding 5 μL small molecule solutions and 10 μL annealed DNA samples into 85 μL buffer solutions, resulting in the final small molecule concentrations from 0 to 250 μM (5% final DMSO concentration). The fluorescence intensities were normalized, and the binding affinity was calculated by fitting the curve using one-site total model in GraphPad Prism 8.3.1 software. The fluorescence titration using 3′-labeled oligonucleotides was also performed the same way.

MYCN G4 DNA [2] = assay: Surface plasmon resonance (SPR) with immobilized biotinylated MYCN G4 DNA; conditions: for positive binding in SPR (SNR>3): single concentration 100 μM compound
Protocol: Surface plasmon resonance (SPR) analysis. The SPR binding assays were performed with a BIAcore 3000 (GE Healthcare) instrument. A CM5 SPR biochip was loaded into the system and primed with running buffer (10 mM Tris, pH7.0, 100 mM KCl, 0.005% Tween 20, 5% DMSO) with a flow rate of 5 μL/min. Then both Flow Cell (Fc) 1 and 2 were activated by EDC/NHS (0.4 M/0.1 M) aqueous solution for 15 min, followed with an injection of streptavidin (SA) solution (0.2 mg/mL in 10 mM sodium acetate buffer, pH4.5) for 30 minutes. After the immobilization amount of SA reached 8,000-10,000 RU, the surface was deactivated by flowing 1 M Ethanolamine aqueous solution (pH 8.5) for 10 min and regenerated with 10 mM NaOH for 2 min to remove the unbound SA. In the meantime, biotinylated MYCN G4 DNA was prepared at 5 μM in the annealing buffer and heated up to 95° C. for 5 min and slowly cooled down. After annealing, a total of 150 μL solution was injected in the Fc 2 of SPR system for 30 min to immobilize DNA onto the chip surface. The small molecule solutions were tested once the baseline was stable.
To detect the binding signal as well as the binding affinity, a higher flowing rate (25 μL/min) was used in both Fc 1 (reference) and Fc 2 (DNA). Each of the compound solution was prepared at 20× designed the concentrations in DMSO, and then diluted into non-DMSO running buffer, resulting in a final concentration of 5% DMSO. Then, a total of 50 μL compound solution was injected in Fc 1-2 flow path for 120 s for association, followed with 200 s running of buffer for dissociation. An injection of 50 μL regeneration buffer (1 M KCl) could be performed between two samples if necessary. The final binding curve was obtained by reference subtraction. To determine the binding affinity (KD), a series of diluted compound solutions were injected and KD was calculated by BIAevaluation 4.0 software (GE Healthcare) using Langmuir 1:1 binding model.
In this example, SPR binding assays were performed to analyze binding activity of representative bivalent compounds of the present disclosure. The compounds of this example included a non-canonical binder component and a G4 stacker component. A BIAcore 3000 (GE Healthcare) instrument was used. A CM5 SPR biochip was used and primed with running buffer (10 mM Tris, pH7.0, 100 mM KCl, 0.005% Tween 20, 5% DMSO). To immobilize the compounds onto the chip surface, the flow rate was set as 5 μL/min. Then the carboxylated dextran on the chip surface was activated by EDC/NHS (0.4 M/0.1 M) aqueous solution for 15 min, followed with an injection of streptavidin (SA) solution (0.2 mg/mL in 10 mM sodium acetate buffer, pH 4.5) for 30 minutes. After the immobilization amount of SA, the surface was quenched by injecting 1 M ethanolamine (EA) aqueous solution (pH 8.5) for 10 min and regenerated with 10 mM NaOH for 2 min to remove the physical adsorption. Furthermore, biotinylated MYCN G4 DNA was prepared at 5 μM in the annealing buffer and heated up to 95° C. for 5 min followed with slowly cooling down to room temperature within 1 h. After annealing, a total of 150 μL solution was injected in the Fc 2 of SPR system for 30 min to immobilize DNA onto the chip surface. The compound solutions were then tested once the baseline was stable.
To detect the binding signal as well as the binding affinity, a higher flowing rate (25 μL/min) was used in both Fc 1 (blank) and Fc 2 (target). Each of the compound solutions was prepared at 20× designed the concentrations in DMSO, and then diluted into non-DMSO running buffer, resulting in a final concentration of 5% DMSO. Then, a total of 50 μL compound solution was injected in Fc 1-2 flow path for 120 s for association, followed with 200 s running of buffer for dissociation. An injection of 50 μL regeneration buffer (1 M KCl) could be performed between two samples if necessary. The final binding curve was obtained by referencing the blank channel (Fc 1). […]

[3] = target: MYCN G4 DNA (2-AP at A11); assay: 2-Aminopurine (2-AP) fluorescence titration, A11-labeled MYCN G4; conditions: 2-AP at A11 of MYCN G4
Protocol: 2-Aminopurine (2-AP) fluorescence titration. Fluorescence titrations based on 2-aminopurine labeling were performed using the protocol reported previously. Briefly, MYCN G4 oligonucleotide with a 2-AP substitution at either A11 or A18 position was annealed by heating the sample to 95° C. for 5 min and cooling down to RT slowly. The oligonucleotide with folded structure was diluted to 10 μM in Tris buffer (10 mM Tris, pH7.0, 100 mM KCl, 0.005% Tween 20) and prepared in a black 96-well plate (Costar) in triplicate as designed. Small molecules were diluted in DMSO to obtain a series of solutions with concentrations ranging from 0.1 to 5 mM, and then diluted by 20 times added into the plate (5% DMSO final concentration). The final concentration of 2-AP DNA was 1 μM in the well plate. To obtain the background fluorescence, small molecule solutions without DNA were also prepared in the same plate. After incubation for 30 min at RT, the plate was briefly centrifuged and scanned in Synergy Mx microplate reader (BioTek) with Ex 310 nm/Em 365 nm. Fluorescence signals were calculated by averaging the intensities in triplicate wells after subtracting the references. Finally, the binding signals were normalized and the KD value was determined by fitting the curve using a nonlinear sigmoidal dose-response model with a variable slope in GraphPad Prism 8.3.1 software.

MYCN hairpin-G4 DNA = assay: FIA using compound fluorescence (Ex 340/Em 500 nm), titration with unlabeled MYCN G4 DNA; conditions: for Kd: 100 nM compound titrated with folded unlabeled MYCN G4
Protocol: In this study, FIA was used for validating the bindings between certain bivalent and MYCN G4 oligos. To measure the binding affinity, a solution of each compound was prepared in triplicate in a 96 well-plate (Costar, black side clear bottom), resulting in a final concentration of 100 nM (5% final DMSO in the working solution). Unlabeled MYCN G4 DNA was folded based on the above-mentioned annealing method, then added into the well plate resulting in different concentrations by a seral dilution. The plate was incubated at room temperature for 30 min, followed by centrifuging at 500 rpm for 2 minutes. The fluorescence intensity was then quantitatively recorded by a Synergy Mx microplate reader (BioTek) at Ex 340 nm/Em 500 nm. The fluorescence intensities were then normalized, and the binding affinity was calculated by fitting the curve using one-site total model in GraphPad Prism 8.3.1 software.

[4] = MYCN G4, Langmuir 1:1 model, read-out: SPR KD
[5] = MYCN hairpin G4, SPR titration, read-out: KD by SPR

Row | positive binding in FIA (>10% quenching) (MYCN G4 DNA [1]) | Kd (MYCN G4 DNA [2]; [4]) | Kd [3] | SMILES | other results
1 | hits | – | – | COc1ccc2c(c1)sc1nc(-c3ccc(OC)c(OC)c3)c(NC(C)(C)C)n12 [Compound 11] | –
2 | – | 8200 ± 2400 nM | 3200 ± 700 nM | COc1ccc(-c2noc(-c3ccc(NCCN4CCOCC4)nn3)n2)cc1 [MY-13, 6-(3-(4-methoxyphenyl)-1,2,4-oxadiazol-5-yl)-N-(2-morpholinoethyl)pyridazin-3-amine] | –
3 | – | 2200 ± 600 nM | 700 ± 200 nM | COc1ccc(-c2noc(-c3ccc(NCCCN4CCC(C)CC4)nn3)n2)cc1 [MY-10] | A11 2AP KD [3]: sub-micromolar binders
4 | – | – | – | COc1ccc(-c2noc(-c3ccc(NCCOCCOCCNc4c5ccc(Cl)cc5nc5ccc(OC)cc45)nn3)n2)cc1 [B38, 6-chloro-2-methoxy-N-(2-(2-(2-((6-(3-(4-methoxyphenyl)-1,2,4-oxadiazol-5-yl)pyridazin-3-yl)amino)ethoxy)ethoxy)ethyl)acridin-9-amine] | Kd (MYCN hairpin-G4 DNA): 69 ± 21 nM; Kd (MYCN G4 DNA [2]; [5]): 87 ± 39 nM
5 | – | 4900 ± 2600 nM | 1000 ± 200 nM | COc1ccc(-c2noc(-c3ccc(NCCN(C)C)nn3)n2)cc1 [MY-6] | –
6 | – | – | – | CCCNc1cc(N2CCCC(CCC(=O)N3CCN(c4ncccn4)CC3)C2)ncn1 (centres unmarked) [Compound 13] | positive binding in SPR (SNR>3) (MYCN G4 DNA [2]): hits
7 | hits | – | – | CCOc1ccc(CNC(=O)c2cnc(N3CCSCC3)nc2N)cc1 [Compound 12] | –
8 | – | 9200 ± 1900 nM | 1200 ± 200 nM | COc1ccc(-c2noc(-c3ccc(NCCCN(C)C)nn3)n2)cc1 [MY-11] | –
9 | – | – | – | COc1ccc(-c2noc(-c3ccc(NCCOCCNc4c5ccc(Cl)cc5nc5ccc(OC)cc45)nn3)n2)cc1 [B35, 6-chloro-2-methoxy-N-(2-(2-((6-(3-(4-methoxyphenyl)-1,2,4-oxadiazol-5-yl)pyridazin-3-yl)amino)ethoxy)ethyl)acridin-9-amine] | Kd (MYCN hairpin-G4 DNA): 38 ± 5 nM; fold improvement of KD compared to B32 (MYCN hairpin-G4 DNA; FIA and SPR, MYCN HP-G4): > 10 fold; Kd (MYCN G4 DNA [2]; [5]): 14 ± 6 nM
10 | – | > 100000 nM | – | COc1ccc(-c2noc(-c3ccc(NCCN4CCCC4)nn3)n2)cc1 [MY-12] | –
11 | – | – | – | O=C1C(=O)C(c2ccc3c(c2)CCCC3)C1NC1CCN(Cc2ccccc2)CC1 (centres unmarked) [Compound 3] | positive binding in SPR (SNR>3) (MYCN G4 DNA [2]): hits
12 | – | – | – | Cc1c(C(=O)O)sc2ncnc(NCCCN3CCN(c4ccccc4)CC3)c12 [Compound 9] | positive binding in SPR (SNR>3) (MYCN G4 DNA [2]): hits
13 | – | 23500 ± 4700 nM | 13200 ± 4600 nM | COc1ccc(-c2noc(-c3ccc(NCCC(N)=O)nn3)n2)cc1 [MY-7] | –
14 | – | 3600 ± 1000 nM | 900 ± 200 nM | COc1ccc(-c2noc(-c3ccc(NCCN4CCN(C)CC4)nn3)n2)cc1 [MY-14] | A11 2AP KD [3]: sub-micromolar binders
15 | – | 5900 ± 2700 nM | 1200 ± 600 nM | COCCNc1ccc(-c2nc(-c3ccc(OC)cc3)no2)nn1 [MY-3] | –
16 | hits | – | – | CC(C)COCC(O)CN1CCN(c2ccc(NC(=O)c3cccs3)cn2)CC1 (centres unmarked) [Compound 14] | –
17 | hits | – | – | Cc1ccc(Nc2cc(C)nc(N3CCN(C(=O)CCc4ccccc4)CC3)n2)cc1 [Compound 10] | –
18 | – | 1400 ± 200 nM | 1000 ± 100 nM | COc1ccc(-c2noc(-c3ccc(NCCCN4CCN(C)CC4)nn3)n2)cc1 [MY-5, 6-(3-(4-methoxyphenyl)-1,2,4-oxadiazol-5-yl)-N-(3-(4-methylpiperazin-1-yl)propyl)pyridazin-3-amine] | –

Row | SMILES | positive binding in FIA (>10% quenching) (MYCN G4 DNA [1]) | Kd (MYCN G4 DNA [2]; [4]) | Kd [3] | other results
19 | c1cc(CNCCCN2CCCCCC2)n(-c2nnc(C3CCCCCC3)s2)c1 [Compound 2] | hits | – | – | positive binding in SPR (SNR>3) (MYCN G4 DNA [2]): hits
20 | COCC(=O)c1nc2ccccc2nc1NCc1cccnc1 [Compound 5] | hits | – | – | positive binding in SPR (SNR>3) (MYCN G4 DNA [2]): hits
